According to paper PMC6227840 (Open Medicine, 2018):
Read-outs that look alike come from different tables or passages of the source.

Legend:
[1] = Population pharmacokinetic; conditions: normal renal function
[2] = cited from earlier work
[3] = cited from earlier work; remark: listed apart in the source

For `CN[C@H](CC(C)C)C(=O)N[C@H]1C(=O)N[C@@H](CC(N)=O)C(=O)N[C@H]2C(=O)N[C@H]3C(=O)N[C@H](C(=O)N[C@H](C(=O)O)c4cc(O)cc(O)c4-c4cc3ccc4O)[C@H](O)c3ccc(c(Cl)c3)Oc3cc2cc(c3O[C@@H]2O[C@H](CO)[C@@H](O)[C@H](O)[C@H]2O[C@H]2C[C@](C)(N)[C@H](O)[C@H](C)O2)Oc2ccc(cc2Cl)[C@H]1O` [vancomycin, Vancomycin], the “central volume of distribution” value (base model, impaired renal function, n = 78) was 22.7 L, the “central volume of distribution, renal impairment group versus normal group” value (base models, 22.7L vs. 7.12L) was 3 times and the “Clearance of vancomycin – CL, Bootstrap analysis Estimate” value (final model parameter, impaired renal function, 200 bootstrap runs) was 0.281 L/h. For the same compound, the “Central volume of distribution – V1, NONMEM Estimate” value (final model, impaired renal function) was 29.9 L, the “Central volume of distribution – V1, Bootstrap analysis Estimate” value (final model, impaired renal function, 200 bootstrap runs) was 30.7 L and the “central volume of distribution” value ([1]; base model, n = 32) was 7.12 L. The “Clearance of vancomycin – CL, Bootstrap analysis Estimate” value ([1]; final model parameter, 200 bootstrap runs) was 0.0754 L/h, the “Central volume of distribution – V1, NONMEM Estimate” value ([1]; final model) was 7.47 L and the “Central volume of distribution – V1, Bootstrap analysis Estimate” value ([1]; final model, 200 bootstrap runs) was 7.55 L. The “apparent volume of distribution” value ([2]; after intravenous administration, distributed in extracellular space) was 0.4 to 1 L/kg, the clearance [2] was “about 2.64 l/h” and the “interstitial fluid concentration in brain tissue” value ([3]; healthy adults) was 0 to 3.45 mg/L. For the same compound, the “interstitial fluid concentration in the brain” value ([3]; patients with meningitis) was 6.4 to 11.1 mg/L.
